Literature values in US20230139565A1 (GLANIS PHARMACEUTICALS, INC., priority 2020, published 2023).
Counter-ions that a name gives are not always drawn.

Legend:
[1] = system: albumin and aphal-acid glycoprotein
[2] = not given; remark: listed apart in the source

protein binding [1] [%]	terminal half-life based on blood concentration (blood) [days]	time of peak concentration (following 200 mg oral dose)	peak concentration in blood (following 200 mg oral dose, blood)	plasma concentration (peak) (following 200 mg oral dose, plasma)	half-life (in vivo) [days]	volume of distribution (in vivo)	oral bioavailability (oral tablet)	solubility in alcohol, chloroform, and in ether ([2]; alcohol, chloroform, ether)	solubility in water ([2]; water)	SMILES
~40	30 to 60	around 3 hours	around 129.6 ng/ml	around 50.3 ng/ml	~2.08	high volume of distribution	about 75%	–	–	CCN(CCO)CCCC(C)Nc1ccnc2cc(Cl)ccc12 (stereo not shown) [HCQ, Hydroxychloroquine]
–	–	–	–	–	–	–	–	practically insoluble	freely soluble	CCN(CCO)CCCC(C)Nc1ccnc2cc(Cl)ccc12 (stereo not shown) [Hydroxychloroquine sulfate]
